Measured values from ChEMBL document CHEMBL4706712, “Discovery and antitumor activity of Benzo[d]imidazol-containing 2,4-diarylaminopyrimidine analogues as ALK inhibitors with mutation-combating effects” (Bioorg Med Chem, 2021).
pIC50: −log10 of the molar value.

What was measured:
KARPAS-299 = assay: cells; conditions: Homo sapiens, KARPAS-299, 72 h
Description: Antiproliferative activity against human KARPAS-299 cells assessed as reduction in cell growth measured after 72 hrs by MTT assay

NCI-H2228 = assay: cells; conditions: Homo sapiens, NCI-H2228, 72 h
Description: Antiproliferative activity against human NCI-H2228 cells assessed as reduction in cell growth measured after 72 hrs by MTT assay

A549 = assay: cells; conditions: Homo sapiens, A549, 72 h
Description: Antiproliferative activity against human A549 cells assessed as reduction in cell growth measured after 72 hrs by MTT assay

[1] = molecular target: ALK tyrosine kinase receptor (Homo sapiens, UniProt Q9UM73); assay: Inhibition of human N-terminal GST-fused ALK cytoplasmic domain (1058 to 1620 residues) expressed in baculovirus infected Sf21 insect cells using Srctide as substrate measured after 1 hr by mobility shift assay
Sequence of ALK tyrosine kinase receptor (Homo sapiens, UniProt Q9UM73) (Q9UM73 whole entry, the tested form may be a part): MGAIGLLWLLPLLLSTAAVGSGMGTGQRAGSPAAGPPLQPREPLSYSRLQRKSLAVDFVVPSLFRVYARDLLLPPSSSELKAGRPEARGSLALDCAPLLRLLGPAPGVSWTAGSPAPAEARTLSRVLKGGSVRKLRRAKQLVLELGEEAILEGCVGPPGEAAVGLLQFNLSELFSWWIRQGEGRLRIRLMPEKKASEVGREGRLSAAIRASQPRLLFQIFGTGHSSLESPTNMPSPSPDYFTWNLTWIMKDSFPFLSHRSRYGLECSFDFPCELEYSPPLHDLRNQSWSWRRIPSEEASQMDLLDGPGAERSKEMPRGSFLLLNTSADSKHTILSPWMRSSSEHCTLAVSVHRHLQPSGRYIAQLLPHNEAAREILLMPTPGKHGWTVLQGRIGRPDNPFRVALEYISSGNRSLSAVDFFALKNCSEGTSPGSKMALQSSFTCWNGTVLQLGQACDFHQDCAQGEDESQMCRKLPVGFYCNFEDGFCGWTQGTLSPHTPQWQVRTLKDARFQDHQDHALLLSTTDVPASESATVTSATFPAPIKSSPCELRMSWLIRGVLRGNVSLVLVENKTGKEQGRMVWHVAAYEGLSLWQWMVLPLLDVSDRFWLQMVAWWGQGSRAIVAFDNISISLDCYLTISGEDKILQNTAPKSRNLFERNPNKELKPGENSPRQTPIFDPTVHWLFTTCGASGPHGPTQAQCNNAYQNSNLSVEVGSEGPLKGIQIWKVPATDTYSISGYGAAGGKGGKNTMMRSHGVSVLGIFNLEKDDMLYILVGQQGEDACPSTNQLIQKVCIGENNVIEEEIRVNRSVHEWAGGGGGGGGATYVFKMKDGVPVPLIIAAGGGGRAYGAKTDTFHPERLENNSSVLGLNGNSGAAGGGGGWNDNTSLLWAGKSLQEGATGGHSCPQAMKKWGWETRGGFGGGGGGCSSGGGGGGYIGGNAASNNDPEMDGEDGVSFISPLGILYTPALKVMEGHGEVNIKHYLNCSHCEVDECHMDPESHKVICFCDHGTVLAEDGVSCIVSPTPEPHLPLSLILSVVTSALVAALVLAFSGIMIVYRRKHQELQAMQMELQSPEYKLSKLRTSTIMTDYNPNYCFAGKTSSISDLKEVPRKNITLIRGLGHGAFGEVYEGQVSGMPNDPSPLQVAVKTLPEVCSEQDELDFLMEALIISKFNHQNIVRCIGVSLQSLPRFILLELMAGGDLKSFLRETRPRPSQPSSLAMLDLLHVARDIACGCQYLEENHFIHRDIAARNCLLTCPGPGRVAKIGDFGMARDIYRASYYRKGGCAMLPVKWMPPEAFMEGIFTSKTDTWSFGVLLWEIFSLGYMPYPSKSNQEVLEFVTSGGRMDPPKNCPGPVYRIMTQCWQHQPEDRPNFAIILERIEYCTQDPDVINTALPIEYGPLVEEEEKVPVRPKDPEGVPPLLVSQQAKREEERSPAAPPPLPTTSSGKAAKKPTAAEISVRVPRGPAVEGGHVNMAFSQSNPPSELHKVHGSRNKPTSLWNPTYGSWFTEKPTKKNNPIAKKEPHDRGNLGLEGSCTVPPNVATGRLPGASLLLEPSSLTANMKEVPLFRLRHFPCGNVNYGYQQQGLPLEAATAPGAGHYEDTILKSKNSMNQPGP

[2] = molecular target: ALK tyrosine kinase receptor (Homo sapiens, UniProt Q9UM73, L1196M); assay: Inhibition of human N-terminal GST-fused ALK L1196M mutant cytoplasmic domain (1058 to 1620 residues) expressed in baculovirus infected Sf21 insect cells using Srctide as substrate measured after 1 hr by mobility shift assay
[3] = molecular target: ALK tyrosine kinase receptor (Homo sapiens, UniProt Q9UM73, G1202R); assay: Inhibition of human N-terminal GST-fused ALK G1202R mutant cytoplasmic domain (1058 to 1620 residues) expressed in baculovirus infected Sf21 insect cells using Srctide as substrate measured after 1 hr by mobility shift assay
Sequence of ALK tyrosine kinase receptor (Homo sapiens, UniProt Q9UM73, G1202R) (Q9UM73 19-1620 G1202R limits assumed): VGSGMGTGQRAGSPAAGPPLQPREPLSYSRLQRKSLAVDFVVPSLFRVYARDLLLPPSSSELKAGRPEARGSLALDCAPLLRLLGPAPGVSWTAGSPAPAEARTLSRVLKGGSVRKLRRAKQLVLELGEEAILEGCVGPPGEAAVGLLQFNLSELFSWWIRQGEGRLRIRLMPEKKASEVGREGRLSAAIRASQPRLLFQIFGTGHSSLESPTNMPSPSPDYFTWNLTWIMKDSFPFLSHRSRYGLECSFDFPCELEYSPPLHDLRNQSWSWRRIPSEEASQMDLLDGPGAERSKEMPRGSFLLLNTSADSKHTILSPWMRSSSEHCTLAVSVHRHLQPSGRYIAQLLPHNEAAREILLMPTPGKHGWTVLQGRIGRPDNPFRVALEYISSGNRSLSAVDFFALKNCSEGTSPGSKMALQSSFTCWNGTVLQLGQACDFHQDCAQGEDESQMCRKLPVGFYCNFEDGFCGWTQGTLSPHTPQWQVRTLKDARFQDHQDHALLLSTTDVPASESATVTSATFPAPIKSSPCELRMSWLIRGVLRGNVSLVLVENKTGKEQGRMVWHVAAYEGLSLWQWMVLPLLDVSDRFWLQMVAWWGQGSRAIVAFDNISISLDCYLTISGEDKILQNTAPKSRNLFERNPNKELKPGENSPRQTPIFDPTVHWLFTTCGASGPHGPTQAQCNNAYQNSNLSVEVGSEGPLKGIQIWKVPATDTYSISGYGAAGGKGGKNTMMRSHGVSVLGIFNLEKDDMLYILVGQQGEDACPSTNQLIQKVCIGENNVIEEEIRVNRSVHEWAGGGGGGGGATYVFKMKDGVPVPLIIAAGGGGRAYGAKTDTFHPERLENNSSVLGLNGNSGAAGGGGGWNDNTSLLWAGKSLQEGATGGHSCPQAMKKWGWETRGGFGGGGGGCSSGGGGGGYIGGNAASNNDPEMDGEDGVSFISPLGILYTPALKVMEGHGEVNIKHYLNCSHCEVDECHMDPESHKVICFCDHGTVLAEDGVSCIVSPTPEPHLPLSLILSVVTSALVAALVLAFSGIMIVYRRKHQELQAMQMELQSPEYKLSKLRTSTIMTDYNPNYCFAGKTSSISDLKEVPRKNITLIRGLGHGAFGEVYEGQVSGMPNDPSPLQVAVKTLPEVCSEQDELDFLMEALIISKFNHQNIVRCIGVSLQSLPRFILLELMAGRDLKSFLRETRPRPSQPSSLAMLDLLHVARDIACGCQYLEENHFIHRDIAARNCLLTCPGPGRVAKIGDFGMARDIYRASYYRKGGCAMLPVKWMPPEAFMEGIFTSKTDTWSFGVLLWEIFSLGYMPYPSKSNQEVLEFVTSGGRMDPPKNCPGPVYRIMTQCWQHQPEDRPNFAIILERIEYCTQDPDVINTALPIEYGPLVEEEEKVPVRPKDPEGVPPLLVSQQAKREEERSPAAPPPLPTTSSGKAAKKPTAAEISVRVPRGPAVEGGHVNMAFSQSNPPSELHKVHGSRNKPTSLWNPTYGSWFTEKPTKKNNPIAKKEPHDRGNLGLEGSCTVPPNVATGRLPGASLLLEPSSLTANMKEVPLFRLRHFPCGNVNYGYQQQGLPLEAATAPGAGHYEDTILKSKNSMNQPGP

[4] = molecular target: Epidermal growth factor receptor (Homo sapiens, UniProt P00533); assay: Inhibition of N-terminal GST-tagged human EGFR cytoplasmic domain (669 to 1210 residues) expressed in baculovirus infected Sf21 insect cells using Srctide as substrate measured after 1 hr by mobility shift assay
Sequence of Epidermal growth factor receptor (P00533 whole entry, the tested form may be a part): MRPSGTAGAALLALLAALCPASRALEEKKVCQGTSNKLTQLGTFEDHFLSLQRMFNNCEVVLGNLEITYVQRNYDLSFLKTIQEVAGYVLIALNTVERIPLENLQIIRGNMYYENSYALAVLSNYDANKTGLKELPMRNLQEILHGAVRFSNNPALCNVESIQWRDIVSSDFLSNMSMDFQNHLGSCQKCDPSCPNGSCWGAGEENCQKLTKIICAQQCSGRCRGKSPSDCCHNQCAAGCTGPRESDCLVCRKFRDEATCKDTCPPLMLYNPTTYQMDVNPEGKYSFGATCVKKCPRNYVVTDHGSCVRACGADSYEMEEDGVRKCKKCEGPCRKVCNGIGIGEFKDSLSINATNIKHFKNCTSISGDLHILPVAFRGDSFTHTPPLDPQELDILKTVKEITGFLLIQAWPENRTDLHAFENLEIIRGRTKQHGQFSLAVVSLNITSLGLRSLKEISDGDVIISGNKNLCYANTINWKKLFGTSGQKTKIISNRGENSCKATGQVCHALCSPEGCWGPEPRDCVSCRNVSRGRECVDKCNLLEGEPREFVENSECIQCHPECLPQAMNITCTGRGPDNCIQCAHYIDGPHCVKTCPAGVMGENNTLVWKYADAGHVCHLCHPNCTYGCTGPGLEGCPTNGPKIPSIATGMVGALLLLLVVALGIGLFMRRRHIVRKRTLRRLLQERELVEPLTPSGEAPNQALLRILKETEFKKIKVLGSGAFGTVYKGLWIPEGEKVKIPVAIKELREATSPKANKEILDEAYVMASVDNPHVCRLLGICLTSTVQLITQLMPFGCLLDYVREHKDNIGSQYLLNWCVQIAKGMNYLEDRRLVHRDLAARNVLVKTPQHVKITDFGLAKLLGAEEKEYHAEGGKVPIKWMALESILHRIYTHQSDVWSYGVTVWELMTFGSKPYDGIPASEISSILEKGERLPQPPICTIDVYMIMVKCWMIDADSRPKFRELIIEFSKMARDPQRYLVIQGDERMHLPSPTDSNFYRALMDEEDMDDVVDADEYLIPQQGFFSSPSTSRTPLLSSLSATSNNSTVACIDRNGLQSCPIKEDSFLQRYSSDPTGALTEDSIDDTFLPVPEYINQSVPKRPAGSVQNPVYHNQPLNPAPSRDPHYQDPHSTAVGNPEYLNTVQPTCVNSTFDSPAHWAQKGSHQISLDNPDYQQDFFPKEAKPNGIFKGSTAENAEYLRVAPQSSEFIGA

[5] = molecular target: T1, Receptor-type tyrosine-protein kinase FLT3 (Homo sapiens, UniProt P36888); assay: Inhibition of N-terminal GST-tagged human FLT3 cytoplasmic domain (564 to 993 residues) expressed in baculovirus infected Sf21 insect cells using Srctide as substrate measured after 1 hr by mobility shift assay
T1 sequence (P36888 whole entry): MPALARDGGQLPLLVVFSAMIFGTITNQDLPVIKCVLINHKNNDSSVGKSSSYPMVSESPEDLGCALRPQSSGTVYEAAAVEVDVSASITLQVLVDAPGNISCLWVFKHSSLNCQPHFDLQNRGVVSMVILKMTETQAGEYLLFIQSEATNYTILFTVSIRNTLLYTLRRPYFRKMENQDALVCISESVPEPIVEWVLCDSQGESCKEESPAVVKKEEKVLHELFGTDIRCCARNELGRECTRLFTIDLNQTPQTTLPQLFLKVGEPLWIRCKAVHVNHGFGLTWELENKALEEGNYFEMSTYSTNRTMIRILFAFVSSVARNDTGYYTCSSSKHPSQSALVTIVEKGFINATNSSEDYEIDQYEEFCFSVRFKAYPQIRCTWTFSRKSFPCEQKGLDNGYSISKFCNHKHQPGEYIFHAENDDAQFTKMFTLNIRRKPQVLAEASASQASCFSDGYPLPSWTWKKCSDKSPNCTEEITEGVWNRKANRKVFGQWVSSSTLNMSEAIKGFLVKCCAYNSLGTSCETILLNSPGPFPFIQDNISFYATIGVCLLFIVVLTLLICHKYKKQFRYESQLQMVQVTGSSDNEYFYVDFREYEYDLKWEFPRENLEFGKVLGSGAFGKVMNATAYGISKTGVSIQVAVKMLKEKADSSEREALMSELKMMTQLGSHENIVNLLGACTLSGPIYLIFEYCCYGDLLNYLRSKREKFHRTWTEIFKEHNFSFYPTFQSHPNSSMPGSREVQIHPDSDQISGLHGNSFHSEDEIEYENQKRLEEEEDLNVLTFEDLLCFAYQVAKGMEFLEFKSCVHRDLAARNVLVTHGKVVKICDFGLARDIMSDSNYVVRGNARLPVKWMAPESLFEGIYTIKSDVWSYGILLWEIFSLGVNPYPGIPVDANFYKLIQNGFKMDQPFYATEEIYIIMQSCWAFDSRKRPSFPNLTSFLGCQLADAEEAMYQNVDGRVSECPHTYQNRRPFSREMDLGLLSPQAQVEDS

| Compound | pIC50 (KARPAS-299) | pIC50 (NCI-H2228) | pIC50 (A549) | pIC50 [1] | pIC50 [2] | pIC50 [3] | pIC50 [4] | pIC50 [5] |
| --- | --- | --- | --- | --- | --- | --- | --- | --- |
| CN(C)C(=O)c1ccccc1Nc1nc(Nc2ccc3nc(CN4CCCCC4)[nH]c3c2)ncc1Cl | 7.24 | 6.47 | 5.73 |  |  |  |  |  |
| CC(=O)Nc1ccccc1Nc1nc(Nc2ccc3nc(CN4CCN(CCO)CC4)[nH]c3c2)ncc1Cl | 5.87 | 5.63 | < 5.00 |  |  |  |  |  |
| CS(=O)(=O)Nc1ccccc1Nc1nc(Nc2ccc3nc(CN4CCCC4)[nH]c3c2)ncc1Cl | 7.21 | 6.46 | 5.73 |  |  |  |  |  |
| CS(=O)(=O)Nc1ccccc1Nc1nc(Nc2ccc3nc(CN4CCCCC4)[nH]c3c2)ncc1Cl | 7.17 | 6.37 | 5.22 | 8.28 | 8.08 | 8.15 | < 6.00 | 6.73 |
| CN(C)C(=O)c1ccccc1Nc1nc(Nc2ccc3nc(CN4CCN(CCO)CC4)[nH]c3c2)ncc1Cl | 6.60 | 5.89 | < 5.00 |  |  |  |  |  |
| CCN(CC)Cc1nc2ccc(Nc3ncc(Cl)c(Nc4ccccc4NS(C)(=O)=O)n3)cc2[nH]1 | 7.10 | 5.91 | < 5.00 |  |  |  |  |  |
| CN(C)C(=O)c1ccccc1Nc1nc(Nc2ccc3nc(CN4CCCC4)[nH]c3c2)ncc1Cl | 7.27 | 6.54 | < 5.00 | 8.47 | 8.28 | 7.88 | < 6.00 | 6.99 |
| CN(C)Cc1nc2ccc(Nc3ncc(Cl)c(Nc4ccccc4NS(C)(=O)=O)n3)cc2[nH]1 | 7.25 | 6.49 | 5.52 | 8.40 | 8.43 | 8.09 | < 6.00 | < 6.70 |
| CN(C)Cc1nc2ccc(Nc3ncc(Cl)c(Nc4ccccc4C(=O)N(C)C)n3)cc2[nH]1 | 7.33 | 6.90 | < 5.00 | 8.49 | 8.42 | 8.16 | < 6.00 | < 6.70 |
| CS(=O)(=O)Nc1ccccc1Nc1nc(Nc2ccc3nc(CN4CCSCC4)[nH]c3c2)ncc1Cl | 5.74 | 5.49 | < 5.00 |  |  |  |  |  |
| CN(C)C(=O)c1ccccc1Nc1nc(Nc2ccc3nc(CN4CCSCC4)[nH]c3c2)ncc1Cl | 5.89 | 5.63 | 5.13 |  |  |  |  |  |
| CS(=O)(=O)Nc1ccccc1Nc1nc(Nc2ccc3nc(CN4CCN(CCO)CC4)[nH]c3c2)ncc1Cl | 5.99 | 5.76 | < 5.00 |  |  |  |  |  |
| CS(=O)(=O)Nc1ccccc1Nc1nc(Nc2ccc3nc(CN4CCOCC4)[nH]c3c2)ncc1Cl | 6.10 | 5.97 | < 5.00 |  |  |  |  |  |
| CN1CCN(Cc2nc3ccc(Nc4ncc(Cl)c(Nc5ccccc5NS(C)(=O)=O)n4)cc3[nH]2)CC1 |  |  |  | 8.44 | 8.31 | 8.15 |  | 6.87 |
| CNC(=O)c1ccccc1Nc1nc(Nc2ccc3nc(CN4CCC(C)CC4)[nH]c3c2)ncc1Cl | 7.11 | 6.20 | < 5.00 |  |  |  |  |  |
| CC(=O)Nc1ccccc1Nc1nc(Nc2ccc3nc(CN(C)C)[nH]c3c2)ncc1Cl | 7.10 | 6.29 | < 5.00 |  |  |  |  |  |
| CCN1CCN(Cc2nc3ccc(Nc4ncc(Cl)c(Nc5ccccc5NS(C)(=O)=O)n4)cc3[nH]2)CC1 | 6.36 | 5.99 | < 5.00 |  |  |  |  |  |
| CC(=O)Nc1ccccc1Nc1nc(Nc2ccc3nc(CN4CCN(C)CC4)[nH]c3c2)ncc1Cl | 6.97 | 6.64 | < 5.00 |  |  |  |  |  |
| CC(=O)Nc1ccccc1Nc1nc(Nc2ccc3nc(CN4CCC(C)CC4)[nH]c3c2)ncc1Cl | 6.71 | 6.01 | 5.22 |  |  |  |  |  |
| CCN(CC)Cc1nc2ccc(Nc3ncc(Cl)c(Nc4ccccc4C(=O)N(C)C)n3)cc2[nH]1 | 5.91 | 5.84 | 5.53 |  |  |  |  |  |
| CC1CCN(Cc2nc3ccc(Nc4ncc(Cl)c(Nc5ccccc5NS(C)(=O)=O)n4)cc3[nH]2)CC1 | 6.87 | 6.11 | < 5.00 |  |  |  |  |  |
| CNC(=O)c1ccccc1Nc1nc(Nc2ccc3nc(CN4CCN(CCO)CC4)[nH]c3c2)ncc1Cl | 6.41 | 5.88 | < 5.00 |  |  |  |  |  |
| CN1CCN(Cc2nc3ccc(Nc4ncc(Cl)c(Nc5ccccc5C(=O)N(C)C)n4)cc3[nH]2)CC1 |  |  |  | 8.57 | 8.42 | 8.24 |  | < 6.70 |
| CNC(=O)c1ccccc1Nc1nc(Nc2ccc3nc(CN(C)C)[nH]c3c2)ncc1Cl | 7.21 | 6.47 | 5.32 |  |  |  |  |  |
| CCN1CCN(Cc2nc3ccc(Nc4ncc(Cl)c(Nc5ccccc5C(=O)N(C)C)n4)cc3[nH]2)CC1 | 6.69 | 6.23 | < 5.00 |  |  |  |  |  |
| CC(C)N(Cc1nc2ccc(Nc3ncc(Cl)c(Nc4ccccc4NS(C)(=O)=O)n3)cc2[nH]1)C(C)C | 5.70 | 5.42 | 5.27 |  |  |  |  |  |
| CS(=O)(=O)Nc1ccccc1Nc1nc(Nc2ccc3nc(CN4CCC(O)CC4)[nH]c3c2)ncc1Cl | 5.89 | 5.89 | < 5.00 |  |  |  |  |  |
| CN(C)C(=O)c1ccccc1Nc1nc(Nc2ccc3nc(CN4CCOCC4)[nH]c3c2)ncc1Cl | 6.08 | 5.90 | < 5.00 |  |  |  |  |  |
| Cc1cc(Nc2ncc(Cl)c(Nc3ccccc3S(=O)(=O)C(C)C)n2)c(OC(C)C)cc1C1CCNCC1 [CERITINIB] | 7.51 | 6.97 |  |  |  |  |  | 7.06 |
